Experimental findings from ChEMBL document CHEMBL6178021, “Optimization of Tambjamines Active against Multiple Stages of Malaria Parasites” (J Med Chem, 2025) are described below.

In data set [1] the test system is Plasmodium yoelii. Nature of the data set: Antimalarial activity against erythrocytic Plasmodium yoelii MRA-428 infected in CF1 mouse assessed as cured mouse at 50 mg/kg, po once daily for 4 days measured on day 28 day. It counts as functional, organism-based. The following applies: time 4.0 day.
Data set [2] relates to Plasmodium yoelii. The data set can be described thus: Antimalarial activity against erythrocytic Plasmodium yoelii MRA-428 infected in CF1 mouse assessed as cured mouse at 10 mg/kg, po once daily for 4 days measured on day 28 day. The following applies: time 4.0 day. The format is functional, organism-based.
Data set [3] has as its system Plasmodium berghei. The data set can be described thus: Anti-malarial activity against Luciferase-expressing Plasmodium berghei sporozoites inoculated in po dosed Albino C57BL/6 mouse malaria model assessed as elimination of parasites in blood by measuring bioluminescence signal measured after 72 hrs. The format is functional, organism-based.
The test system of data set [4] is Plasmodium berghei. The data set can be described thus: Anti-malarial activity against Luciferase-expressing Plasmodium berghei sporozoites inoculated in po dosed Albino C57BL/6 mouse malaria model assessed as elimination of parasites in liver by measuring bioluminescence signal measured after 48 hrs. It counts as functional, organism-based.
The test system of data set [5] is Plasmodium yoelii. The data set can be described thus: Antimalarial activity against erythrocytic Plasmodium yoelii MRA-428 infected in CF1 mouse assessed as reduction in parasitemia at 80 mg/kg, po once daily for 4 days measured on day 5. The following applies: time 4 day. Also on record: scale not given: the % may be the effect or the level left. The format is functional.

The subject of data set [6] is Plasmodium falciparum. Nature of the data set: Antiplasmodial activity against asexual blood-stage Plasmodium falciparum Tm90-C2B using 2% haematocrit and 0.2% parasitemia assessed as reduction in fluorescence measured after 72 hrs by Malaria SYBR Green I-based Fluorescence (MSF) assay. The format is functional, organism-based.
The test system of data set [7] is Plasmodium falciparum. Nature of the data set: microbe, parasite or virus in culture. The following applies: D6, 72 h.
Description: Antiplasmodial activity against asexual blood-stage Plasmodium falciparum D6 using 2% haematocrit and 0.2% parasitemia assessed as reduction in fluorescence measured after 72 hrs by Malaria SYBR Green I-based Fluorescence (MSF) assay
The subject of data set [8] is Plasmodium yoelii. The data set can be described thus: Antimalarial activity against erythrocytic Plasmodium yoelii MRA-428 infected in CF1 mouse assessed as reduction in parasitemia at 10 mg/kg, po once daily for 4 days measured on day 5. The format is functional. Further details: scale not given: the % may be the effect or the level left. Conditions: time 4 day.
Data set [9] deals with Plasmodium yoelii. Nature of the data set: Antimalarial activity against erythrocytic Plasmodium yoelii MRA-428 infected in CF1 mouse assessed as cured mouse at 80 mg/kg, po once daily for 4 days measured on day 28 day. The format is functional, organism-based. Conditions: time 4.0 day.
Data set [10] is described as follows: Metabolic stability in mouse liver microsomes assessed as half life measured up to 60 mins by LC/MS analysis. It counts as ADME, Microsome. Background: Liver microsomes are vesicles of endoplasmic reticulum, rich in cytochrome P450 enzymes.
Data set [11] in a line: (§1) Cytotoxicity against human HepG2 cells assessed as cell viability measured after 48 hrs by MTT assay. The format is toxicity, cell-based. Conditions: human, HepG2 cells. (In general: Formazan colour is commonly taken as a measure of viable cells.)
The nature of data set [12]: in vitro. Conditions: human.
Description: Selectivity index, ratio of IC50 for cytotoxicity against human HepG2 cells to IC50 for antiplasmodial activity against asexual blood-stage Plasmodium falciparum D6
The subject of data set [13] is Plasmodium yoelii. The data set can be described thus: Antimalarial activity against erythrocytic Plasmodium yoelii MRA-428 infected in CF1 mouse assessed as reduction in parasitemia at 50 mg/kg, po once daily for 4 days measured on day 5. It counts as functional. Further details: scale not given: the % may be the effect or the level left. Conditions: time 4 day.

Data set [14] has as its system Plasmodium yoelii. The data set can be described thus: Antimalarial activity against erythrocytic Plasmodium yoelii MRA-428 infected in CF1 mouse assessed as cured mouse at 25 mg/kg, po once daily for 4 days measured on day 28 day. The format is functional, organism-based. The following applies: time 4.0 day.
In data set [15] the test system is Plasmodium falciparum. Nature of the data set: microbe, parasite or virus in culture. The following applies: Dd2, 72 h.
Description: Antiplasmodial activity against asexual blood-stage Plasmodium falciparum Dd2 using 2% haematocrit and 0.2% parasitemia assessed as reduction in fluorescence measured after 72 hrs by Malaria SYBR Green I-based Fluorescence (MSF) assay
The nature of data set [16]: Metabolic stability in human liver microsomes assessed as half life measured up to 60 mins by LC/MS analysis. It counts as ADME, Microsome.
The test system of data set [17] is Plasmodium yoelii. The data set can be described thus: Antimalarial activity against erythrocytic Plasmodium yoelii MRA-428 infected in CF1 mouse assessed as reduction in parasitemia at 25 mg/kg, po once daily for 4 days measured on day 5. The format is functional. Further details: scale not given: the % may be the effect or the level left. The following applies: time 4 day.

Data set [18] relates to Plasmodium falciparum. Nature of the data set: Anti-plasmodial activity against Plasmodium falciparum 3D7 infected in erythrocytes assessed as Lag phase (time to observe the maximal killing effect of the drug) at 0.27 uM. The format is functional.
Data set [19] relates to Plasmodium falciparum. Nature of the data set: Anti-plasmodial activity against Plasmodium falciparum 3D7 infected in erythrocytes assessed as parasite clearance time at 0.27 uM measured 22 to 28 days relative to initial population. It counts as functional. Conditions: time 22-28 day.
Data set [20] has as its system Plasmodium falciparum. The data set can be described thus: Anti-plasmodial activity against Plasmodium falciparum 3D7 infected in erythrocytes assessed as parasite reduction ratio at 0.27 uM measured 22 to 28 days. It counts as functional. The following applies: time 22-28 day.
Data set [21] can be described thus: in vitro. Conditions: mouse, liver microsomes.
A short description of data set [22]: (§2) Apparent permeability across apical to basolateral side in MDCK transfected with human MDR1 cells incubated for 1 hr by LC-MS analysis. The following applies: dog, mdck, 1 h.
Data set [23] can be described thus: Solubility of the compound in potassium phosphate buffer at pH 7.4 by UV-vis spectroscopy.
In data set [24] the test system is MDR1 (human). Nature of the data set: Efflux ratio, ratio of apparent permeability across apical to basolateral side over basolateral to apical side in MDCK transfected with human MDR1 cells incubated for 1 hr by LC-MS analysis. Conditions: dog.
Data set [25] in a line: in vitro. Conditions: human, liver microsomes.
A further data set relates to HepG2. Described as §1. The format is toxicity, cell-based. The following applies: hepg2.
Data set [26] deals with MDR1 (human). The data set is described as §2. The following applies: dog, MDCK-MDR1.
Data set [27] relates to MDR1 (human). The data set can be described thus: Apparent permeability across basolateral to apical side in MDCK transfected with human MDR1 cells incubated for 1 hr by LC-MS analysis. Conditions: dog, MDCK-MDR1.

In brackets after ≈: the same amount, converted by molar mass. Activity calls are given as the source filed them. No cut-off for these calls is given here.

What is called IC50 is the concentration at which inhibition is half-maximal. In general, half-life refers to the time in which the quantity being followed falls by half. As for `CCC1=C(C)/C(=C/NC2CCCCCC2)N=C1c1ccc[nH]1`, the Activity entry with Plasmodium yoelii [1] was “Active; Four Mouse Cured Out Of Four”; in the data set on Plasmodium yoelii [2], “Not active; None Of The Mouse Cured Out Of Four Tested”; with Plasmodium yoelii [5], 100%; with Plasmodium yoelii [8], 100%; with Plasmodium yoelii [9], “Active; Two Mouse Cured Out Of Four”; in the data set on Plasmodium yoelii [13], 100%. Moreover, the figures for the Activity entry in the data set with Plasmodium yoelii [14] and in the data set on Plasmodium yoelii [17] were “Active; Four Mouse Cured Out Of Four” and 100%, respectively. The outcome in the data set on Plasmodium berghei [3] and with Plasmodium berghei [4] was inactive. For the same molecule, the half-inhibitory concentration (IC50) in the data set on Plasmodium falciparum [6] worked out at 37.6 nM; in the data set on Plasmodium falciparum [7], 62.2 nM; with Plasmodium falciparum [15], 55.5 nM. For the same molecule, the half-life in data set [10] turned out to be 10.1 min; in data set [16], 17.7 min. For the same molecule, the IC50 at 48 h in [11] was determined as 19200 nM. The selectivity ratio in “in vitro [12]” turned out to be 309.
For the molecule `CCC1=C(CC)/C(=C/NC23CC4CC(CC(C4)C2)C3)N=C1c1ccc[nH]1`, the Activity entry in the data set on Plasmodium yoelii [1] is “Active; Three Mouse Cured Out Of Four”; in the data set on Plasmodium berghei [3], “Dose-dependent-effect”; in the data set with Plasmodium berghei [4], “Dose-dependent-effect”; in the data set on Plasmodium yoelii [5], 100%; in the data set on Plasmodium yoelii [8], 82.5%; in the data set on Plasmodium yoelii [9], “Active; Four Mouse Cured Out Of Four”. In addition, the results for the Activity with Plasmodium yoelii [13], in the data set with Plasmodium yoelii [14] and in the data set on Plasmodium yoelii [17] were 100%, “Active; Three Mouse Cured Out Of Four” and 100%, respectively. In addition, the IC50 was 1.6 nM with Plasmodium falciparum [7] and 1.01 nM in the data set with Plasmodium falciparum [15]. The results for the half-life in data set [10] and in data set [16] were 16 min and more than 60 min, respectively. For the same molecule, the IC50 at 48 h in [11] was 3900 nM. Also, in the data set “in vitro [12]”, the selectivity ratio was 2440.
On to `CCc1nc(N)nc(N)c1-c1ccc(Cl)cc1` [PYRIMETHAMINE], for which, in the data set on Plasmodium falciparum [18], the Time was 24 h. Moreover, the T99.9% in the data set on Plasmodium falciparum [19] was found to be 54 h. Also, the “log(activity)” value with Plasmodium falciparum [20] came to 3.49.
A word on the microsomal CLint: it is the rate of metabolic loss divided by the concentration. One may read the Papp as the rate of passage across a membrane or cell layer, normalised by area and donor concentration. The solubility is the concentration that dissolves in the medium under given conditions. One may read the efflux ratio as the permeability from basolateral to apical divided by that in the opposite direction, in the common usage. On to `CCC1=C(CC)/C(=C/NC23CC4CC(CC(C4)C2)C3)N=C1c1cc2ccccc2[nH]1`, for which the IC50 in the data set on Plasmodium falciparum [6] was found to be 410 nM; in the data set with Plasmodium falciparum [7] it was 70.2 nM; in the data set with Plasmodium falciparum [15], 59.3 nM. For the same molecule, the microsomal CLint at 1 h in “in vitro [21]” is 28.3 µL/min/mg; in the data set “in vitro [25]” it was 4.02 µL/min/mg. For the same molecule, the results for the half-life in data set [10] and in [16] were 49.1 min and more than 60 min, respectively. Further, in data set [11], the IC50 at 48 h was 7010 nM. The apparent permeability coefficient (Papp) in [22] was 0.58 ×10⁻⁶ cm/s. In the data set “in vitro [12]”, the selectivity ratio turned out to be 99.8. Moreover, the solubility in [23] (potassium phosphate buffer) amounted to 11.5 µM (≈ 4.6 µg/mL). Besides, the efflux ratio at 1 h with MDR1 (human) [24] was found to be 0.14.
A word on the Papp A→B: it is the apparent permeability from the apical to the basolateral side of a cell layer. For orientation: Papp B→A means the apparent permeability from the basolateral to the apical side of a cell layer. As to `CCC1=C(CC)/C(=C/NC23C[C@H]4C[C@@H](C2)C[C@@H](C3)C4)N=C1c1ccc(C)[nH]1`, the Activity result in the data set with Plasmodium yoelii [1] was “Active; Two Mouse Cured Out Of Four”; in the data set with Plasmodium yoelii [2], “Not active; None Of The Mouse Cured Out Of Four Tested”; in the data set with Plasmodium yoelii [8], 100%; in the data set with Plasmodium yoelii [13], 100%; in the data set with Plasmodium yoelii [14], “Not active; None Of The Mouse Cured Out Of Four Tested”; in the data set on Plasmodium yoelii [17] it was 100%. Besides, the IC50 worked out at 1.01 nM in the data set on Plasmodium falciparum [6], 0.934 nM with Plasmodium falciparum [7], 2450 nM in the data set on HepG2 and 0.823 nM in the data set on Plasmodium falciparum [15]. The microsomal CLint at 1 h in the data set “in vitro [21]” stood at 13.8 µL/min/mg; in the data set “in vitro [25]”, 39.7 µL/min/mg. Also, the results for the half-life in [10] and in data set [16] were more than 60 min and 34.9 min, respectively. Besides, the Papp A→B at 1 h with MDR1 (human) [26] came to 0.027 ×10⁻⁶ cm/s. In addition, in “in vitro [12]”, the selectivity ratio turned out to be 2620. In data set [23] (buffer), the solubility stood at 10.9 µM (≈ 3.96 µg/mL). For the same molecule, the efflux ratio at 1 h with MDR1 (human) [24] is 0.24. For the same molecule, the Papp B→A at 1 h with MDR1 (human) [27] was determined as 0.006 ×10⁻⁶ cm/s.
